One assay deals with α-glucosidase. In words: Inhibitory kinetics against α-glucosidase (Lineweaver–Burk plots). The following applies: Lineweaver–Burk plot; compound 0, 5.44, 10.87, 21.74 μM. The assay is classed as biochemical, Saccharomyces cerevisiae. The source says:
The inhibitory kinetics of seven compounds (8-9, 11, 13, 24-26) that have strong α-glucosidase inhibitory activities were studied. The Lineweaver–Burk plot was used to determine their inhibition types against α-glucosidase. […] As for compound 8, the slope of the lines became greater with the increase in the concentration, but all straight lines intersected with the x-axis almost at one point (while Vmax decreased, Km was unchanged), showing that α-glucosidase inhibition mediated by compound 8 is noncompetitive, signifying that it can bind to either the free α-glucosidase or the enzyme–substrate complex to interfere the enzyme reaction without directly blocking the binding of the substrate to the enzyme.
Concentrations of active compounds 8-9, 11, 13, 24-26 (0, 5.44, 10.87, 21.74 μM) and the substrate p-NPG ([…]) were prepared, and an experimental protocol is described in detail in the literature. The data were acquired using the Lineweaver–Burk equation of enzyme kinetics.

For a further assay, the target named is yeast α-glucosidase. The experiment in a line: α-glucosidase inhibitory activity assay (p-NPG substrate, absorbance at 405 nm). It is filed as biochemical, Saccharomyces cerevisiae. The method, then: This experiment was carried out in 96-well plates with reaction system of 230 μL. […] The 96-well plates were incubated in a constant-temperature incubator for 20 min at 37 °C, then 20 μL of 2.658 mmol/L p-PNG was added, and then incubation continued for another 28 min. The termination of the reaction was conducted by adding 80 μL of 0.2 mol/L Na2CO3 to each well. The absorbance was recorded for each well at 405 nm by a microplate reader, and the experiment was carried out three times in parallel. The measured absorbance values were processed by Graphpad Prism software 9.5 to calculate the IC50 values of the compounds.

Setting [1] is: IC50 ± SD, PBS pH 6.8, 37 °C, three times in parallel, read-out: IC50 (μM), inhibition activities on α-Glucosidase.
The mark [2] stands for this setting: unit inferred, read-out: IC50 against α-glucosidase (unit inferred).

Read-outs that look alike come from different tables or passages of the source.

For `COc1cc(O)cc(CCc2ccccc2)c1CC=C(C)C` [Compound 8], in the assay with α-glucosidase, the “inhibition type against α-glucosidase” value is listed as “noncompetitive”. Besides, the IC50 on yeast α-glucosidase (setting [1]) was 7 ± 0.45 µM.
Consider 3, 4′-O-dimethylquercetin [Compound 21], for which, at yeast α-glucosidase (setting [1]), the 50% inhibitory concentration (IC50) was 19.4 ± 1.02 µM.
Same read-out and setting: to `COc1cc(O)cc(/C=C/c2ccccc2)c1` [Compound 6, pinosylvin monomethyl ether] belongs over 2000 µM; to `O=c1cc(-c2ccc(O)cc2)oc2c(C3OCC(O)C(O)C3O)c(O)cc(O)c12` [Compound 23, apigenin-8-C-α-L-arabinopyranoside], over 2000 µM; to `COc1cc(O)cc(CC(=O)c2ccccc2)c1CC=C(C)C` [Compound 7, cajanotone], over 2000 µM.
Consider `COc1cc(O)c2c3c1C[C@H](C(C)(C)O)[C@H](c1ccccc1)[C@H]3OC2=O` [Compound 1, cajanstilbenoid C], for which, at yeast α-glucosidase (setting [1]), the IC50 was over 2000 µM.
Regarding `COc1cc(O)c2c(=O)cc(-c3ccccc3)oc2c1CC=C(C)C` [Compound 13, 5-hydroxy-7-methoxy-8-prenylflavone], the “inhibition type against α-glucosidase” value with α-glucosidase was “mixed-competitive”. In addition, the figures for the IC50 at yeast α-glucosidase (setting [1]) and on yeast α-glucosidase (setting [2]) were 2.3 ± 0.51 µM and 2.3 ± 0.5 µM, respectively.
For the compound `O=c1cc(-c2ccc(O)c(O)c2)oc2cc(O)ccc12` [Compound 25, 7, 3′, 4′-trihydroxy flavone], the IC50 at yeast α-glucosidase (setting [1]) and on yeast α-glucosidase (setting [2]) was 3.17 ± 0.55 µM in each case.
Regarding `CC1(C)C=Cc2c(cc(O)c3c2O[C@H](c2ccc(O)cc2)CC3=O)O1` [Compound 26, 8-prenylnaringenin C], the IC50 on yeast α-glucosidase (setting [1]) and at yeast α-glucosidase (setting [2]) was 2.35 ± 0.54 µM throughout.
Take `COc1cc(/C=C/c2ccccc2)c(C(=O)O)c(O)c1CC=C(C)C` [Compound 5, cajaninstilbene acid]: the IC50 on yeast α-glucosidase (setting [1]) was over 2000 µM.
Take `CC1(C)C=Cc2c(cc3occ(-c4ccc(O)cc4)c(=O)c3c2O)O1` [Compound 27, alpinum isoflavone]: the IC50 on yeast α-glucosidase (setting [1]) was over 2000 µM.
Still for that read-out and setting: next, `COc1cc(O)c2c(c1CC=C(C)C)O[C@H](c1ccccc1)[C@@H](O)C2=O` [Compound 14, 3,5-dihydroxy-7-methoxy-8-isopentenyl-dihydroflavone]: over 2000 µM.
With `CC(C)=CCc1c(O)cc2oc(-c3ccccc3)cc(=O)c2c1O` [Compound 12, 6-C-(3,3-dimethylallyl) chrysin], the IC50 at yeast α-glucosidase (setting [1]) is over 2000 µM.
Regarding `CC(C)=CCc1c(O)cc(O)c2c(=O)c(O)c(-c3ccc(O)c(O)c3)oc12` [Compound 11, 8-prenylquercretin], the “inhibition type against α-glucosidase” value with α-glucosidase is listed as “anticompetitive”. Moreover, the IC50 was 0.87 ± 0.05 µM on yeast α-glucosidase (setting [1]) and 0.87 ± 0.05 µM on yeast α-glucosidase (read-out: IC50 against α-glucosidase (text, with unit)).
Take “7, 3′, 4′-trihydroxy isoflavone [Compound 24]”: on yeast α-glucosidase (setting [1]), the half-inhibitory concentration (IC50) turned out to be 6.5 ± 0.42 µM.
The same measure, in the same setting: to `COc1cc(/C=C/c2ccccc2)c(C(=O)O)c2c1C[C@@H](O)C(C)(C)O2` [Compound 2, cajanstilbenoid D] belongs over 2000 µM; to `COc1cc(O)c2c(c1)O[C@H](c1ccccc1)CC2=O` [Compound 15, pinostrobin], over 2000 µM; to `COc1cc(O)c2c(c1)O[C@H](c1ccc(O)cc1)CC2=O` [Compound 16, sakuranetin], over 2000 µM.
On the same count and under the same terms, next, `COc1ccc2c(=O)c(-c3ccc(O)cc3O)coc2c1` [Compound 18, 7-methoxy-2′, 4′-dihydroxy isoflavone]: over 2000 µM.
Consider `COc1cc(/C=C/c2ccccc2)cc(O)c1CC=C(C)C` [Compound 9, longistylin A], for which the “inhibition type against α-glucosidase” value in the assay on α-glucosidase is reported as “mixed-competitive”. In addition, the IC50 at yeast α-glucosidase (setting [1]) was determined as 12.9 ± 1.31 µM.
Regarding `CC1(C)Oc2cc(/C=C/c3ccccc3)cc(O)c2CC1O` (stereo not drawn) [Compound 4, chiricanine B], on yeast α-glucosidase (setting [1]), the IC50 was over 2000 µM.
Still for that read-out and setting: to `COc1ccc(-c2oc3cc(O)cc(O)c3c(=O)c2O)cc1O` [Compound 19, tamarixetin] belongs 8.7 ± 0.08 µM; to `CC(C)=CCc1c(O)cc(/C=C/c2ccccc2)cc1O` [Compound 3, chiricanine A], 30.3 ± 2.33 µM.
Turning to `CC(C)=CCc1c(O)cc(O)c2c1O[C@H](c1ccc(O)cc1)[C@@H](O)C2=O` [Compound 20, neophellamuretin], the IC50 on yeast α-glucosidase (setting [1]) and at yeast α-glucosidase (setting [2]) was 4.5 ± 0.49 µM in each case.

What is called IC50 is the point on the concentration scale where inhibition reaches its midpoint.

These data come from paper PMC10180137 (Molecules, 2023).
